From PubChem BioAssay AID1996 come the findings set out here.

≈ marks a conversion by molar mass, not a printed value. A value given as a limit tells only on which side of the number the result lay.

The conditions of this data set: buffer; pH 7.4; 200.0 µM.
The term solubility (kinetic) denotes solubility judged after dilution from a stock solution rather than from solid. For `Cc1cc2nsnc2c(S(=O)(=O)N2CCN(C)CC2)c1C`, the kinetic solubility worked out at 47.9 µg/mL (≈ 147 µM). Turning to `COc1ccc(NC(=O)C2CCCN(C(=O)Nc3ccc(F)cc3)C2)cc1` (stereo unspecified), the kinetic solubility is 12.4 µg/mL (≈ 33.4 µM). `O=C1NC(c2ccc(Cl)cc2)=COc2ccccc21` yielded a solubility (kinetic) of 1.1 µg/mL (≈ 4.05 µM).

For `Cc1ccc(Cc2c(C)[nH]c(=S)[nH]c2=O)cc1`, the solubility (kinetic) was found to be 7.4 µg/mL (≈ 30 µM).

In turn, `Cn1c(N)c(C(=O)COC(=O)COc2cc(Cl)c(Cl)cc2Cl)c(=O)n(C)c1=O` gave a kinetic solubility of 4 µg/mL (≈ 8.88 µM).

Compound `CC(O)CNC12CC3CC(CC(C3)C1)C2` (stereo unspecified) registered a solubility (kinetic) of 29.6 µg/mL (≈ 141 µM).

With `Cc1cccc(NC(=O)NC2CCCCCCC2)c1C`, the kinetic solubility stood at 0.6 µg/mL (≈ 2.19 µM). `S=c1nc(-c2ccc(Br)cc2)[nH]c2ccccc12` had a kinetic solubility of 0.7 µg/mL (≈ 2.21 µM). As to `CN(CCC#N)C(=O)CC1(Cc2ccccc2)CCOC(C)(C)C1` (stereo unspecified), the solubility (kinetic) was more than 49.3 µg/mL. The same measure for `CCn1c(SCC#N)nc2ccccc2c1=O`: more than 36.8 µg/mL; for `CC(=O)Nc1ccc(N=Cc2c(O)ccc3ccccc23)cc1`: 7.6 µg/mL (≈ 25 µM). In turn, `CNC(=O)COC(=O)/C=C/c1nc2ccccc2s1` yielded a kinetic solubility of more than 41.4 µg/mL. The same measure for `Cc1ccc(NC(=O)NCc2cccnc2)cc1C`: 38.2 µg/mL (≈ 150 µM); for `Cc1c(C(=O)OCC(=O)N(C)c2ccccc2)cccc1[N+](=O)[O-]`: 38.1 µg/mL (≈ 116 µM). `NS(=O)(=O)c1ccc(CNc2ccc3ccccc3n2)cc1` registered a kinetic solubility of 12.8 µg/mL (≈ 40.8 µM). `CCC(C)NC(=O)c1ccc2nc(Cc3ccc(OC)cc3)oc2c1` (stereo unspecified) had a solubility (kinetic) of 4.7 µg/mL (≈ 13.9 µM).

The compound `Cc1nc2cc3c(cc2s1)OCO3` registered a kinetic solubility of 13.1 µg/mL (≈ 67.8 µM). `COCCCNc1nc(-c2ccc(Cl)cc2)nc2ccccc12` yielded a solubility (kinetic) of 4.3 µg/mL (≈ 13.1 µM).

On to `O=C(NC1CCN(C(=O)Nc2ccc(F)cc2)CC1)c1cccc(F)c1`, for which the solubility (kinetic) was 6 µg/mL (≈ 16.7 µM). `COc1ccccc1/C=C/C(=O)OCC(=O)Nc1ccc2c(c1)OCO2` gave a solubility (kinetic) of 3.3 µg/mL (≈ 9.29 µM). As to `O=C(CN1CCc2ccccc2C1)Nc1ccc(OC(F)(F)F)cc1`, the solubility (kinetic) was 0.9 µg/mL (≈ 2.57 µM).

In the case of `Cc1ccc(NC(=O)COC(=O)CCC2CCCC2)cc1S(=O)(=O)N1CCOCC1`, the solubility (kinetic) came to 15.8 µg/mL (≈ 36 µM). `O=C(CSc1n[nH]c(=O)n1C1CC1)NCc1ccccc1Cl` had a kinetic solubility of more than 50.8 µg/mL. The value for `C=CCOC(=O)C1=C(C)NC(=O)NC1c1ccc2c(c1)OCO2` (stereo unspecified) was 43.4 µg/mL (≈ 137 µM). The same measure for `COc1ccc(NC(=O)Nc2ccc3nonc3c2)cc1`: 5.3 µg/mL (≈ 18.6 µM); for `O=C(O)C1CCCCC1C(=O)Nc1ccc2c(c1)OCO2` (stereo unspecified): more than 43.7 µg/mL. The value for `COCCCNC(=O)c1ccc(CSCc2ccc(C)cc2)o1` was 49.8 µg/mL (≈ 149 µM); that for `O=[N+]([O-])c1cccc(S(=O)(=O)NCCCn2ccnc2)c1` was more than 46.5 µg/mL. Take `COc1ccc(S(=O)(=O)N2CCN(C(=O)N(C)C)C2C)cc1` (stereo unspecified): the solubility (kinetic) is more than 49.1 µg/mL. The compound `CN1CCN(/N=C/c2c[nH]c3ccccc23)CC1` returned a kinetic solubility of more than 36.3 µg/mL.

`COc1cccc(/C=C2\NC(=O)NC2=O)c1O` had a solubility (kinetic) of 32.6 µg/mL (≈ 139 µM). The same measure for `CC(=O)C1C(c2ccc(F)cc2)c2c(noc2C)CC1(C)O` (stereo unspecified): more than 45.5 µg/mL; for `Cc1cccc(C(=O)OCCN2CCOCC2)c1.Cl`: more than 42.9 µg/mL. `C=CCN=C1S/C(=C\c2ccc(N(C)C)cc2)C(=O)N1CC=C` showed a solubility (kinetic) of 5.5 µg/mL (≈ 16.8 µM). The same measure for `CCC(Oc1ccccc1)C(=O)NC1CCSC1=O` (stereo unspecified): more than 41.9 µg/mL; for `CCC1(CC)NC(=O)N(Cc2nc3ccccc3s2)C1=O`: more than 45.5 µg/mL; for `COc1ccc(CCCc2n[nH]c(=S)o2)cc1C`: more than 39.7 µg/mL.

Turning to `CCCC(C(=O)Nc1ccncc1)c1ccccc1` (stereo unspecified), the kinetic solubility is more than 38.1 µg/mL. As to `Cc1csc(NC(=O)c2cc(C)on2)n1`, the solubility (kinetic) is more than 33.5 µg/mL. The same measure for `CCNC(=S)N1CCC(NC(=O)c2ccco2)CC1`: more than 42.2 µg/mL; for `Cc1cc(C(=O)OCC(=O)NC2CCCCC2C)c2ccccc2n1` (stereo unspecified): 6.3 µg/mL (≈ 18.5 µM); for `COc1ccccc1Oc1nc([N+](=O)[O-])nn1CC(N)=O`: more than 44 µg/mL. The same measure for `Cc1cccc(NC(=O)c2ccc3[nH]c(=O)c(=O)[nH]c3c2)n1`: 17.7 µg/mL (≈ 59.7 µM). The compound `O=C(CCCO)NNc1c2ccccc2nc2ccccc12` had a kinetic solubility of more than 44.3 µg/mL. The value for `COc1cc(NC(=O)c2cc(C)no2)c(OC)cc1Cl` was 1.8 µg/mL (≈ 6.07 µM). The value for `CC(C)(C)CC(=O)Nc1cc2c3c(c1)CCC(=O)N3CCC2` was 43.2 µg/mL (≈ 144 µM).

In the case of `CCC(C(=O)NCCc1ccccc1)c1ccccc1` (stereo unspecified), the solubility (kinetic) is more than 40.1 µg/mL. The compound `CC(=O)c1ccc(NC(=O)C2CCCC2)cc1` returned a solubility (kinetic) of 32.6 µg/mL (≈ 141 µM). The value for `Cc1c(Cl)cccc1NS(=O)(=O)c1cccc2nsnc12` was more than 51 µg/mL. The same measure for `O=C(CSc1ccccc1)N1CCN(C(=O)c2ccco2)CC1`: more than 49.6 µg/mL; for `COCCNC(=O)c1ccc(CSc2nc3ccccc3s2)cc1`: 27.6 µg/mL (≈ 77 µM). The compound `O=S(=O)(c1ccccc1)N1CCCC1c1cccs1` (stereo unspecified) had a kinetic solubility of more than 44 µg/mL. With `Cc1cc(SCc2ccc(Cl)c(Cl)c2)nc(=O)[nH]1`, the solubility (kinetic) came to 1.4 µg/mL (≈ 4.65 µM). Compound `Cc1cccc(NC(=S)NC2CCCC2)c1C` yielded a solubility (kinetic) of 34.1 µg/mL (≈ 137 µM). The value for `Cc1cnc(NC(=O)CC2OC(=O)c3ccccc32)s1` (stereo unspecified) was 6.5 µg/mL (≈ 22.5 µM); that for `Cc1noc(C)c1C(=O)Nc1nccs1` was more than 33.5 µg/mL. The same measure for `CCCc1cc(=O)[nH]c(SCC(=O)Nc2sc3c(c2C(N)=O)CCCC3)n1`: 9 µg/mL (≈ 22.1 µM); for `CCOC(=O)Cc1csc(NC(=O)Nc2cccc(OC)c2)n1`: 5.8 µg/mL (≈ 17.3 µM). `c1ccc2c(SCc3cn4ccccc4n3)nncc2c1` displayed a kinetic solubility of more than 43.9 µg/mL.

The compound `CN(C)C(C)(C)/C=C/C(O)(c1ccccc1)c1ccccc1` showed a solubility (kinetic) of 43 µg/mL (≈ 146 µM). Turning to `O=C(NC(CO)C(=O)OCc1ccccc1)OCc1ccccc1` (stereo unspecified), the kinetic solubility was more than 49.4 µg/mL. The value for `CCC(NC(=S)NC1CCCCC1)c1ccccc1` (stereo unspecified) was 3.8 µg/mL (≈ 13.7 µM); that for `CN1C(=O)C(=O)/C(=C(/O)c2ccccc2)C1c1ccc(Br)cc1` (stereo unspecified) was more than 55.8 µg/mL; that for `Cl.O=C(O)CSc1nc(-c2ccccc2)c(-c2ccccc2)[nH]1` was more than 52 µg/mL. The same measure for `Cc1c2n(c3ccccc13)CCC2=O`: 14.1 µg/mL (≈ 76.1 µM); for `CC(=O)NC(=O)c1cnn(-c2ccccc2)c1N`: more than 36.6 µg/mL; for `CC1CCCCC1NCC(=O)Nc1ccccc1C(=O)Nc1ccccc1` (stereo unspecified): 4 µg/mL (≈ 10.9 µM). The same measure for `Fc1cccc(NC(=S)N2CCn3cccc3C2c2cccnc2)c1` (stereo unspecified): 51.9 µg/mL (≈ 147 µM). Regarding `CC(=O)N1CCOCCOCCN(C(C)=O)CCOCC1`, the solubility (kinetic) is more than 45.4 µg/mL. The same measure for `O=C(Nc1ccc(Cl)cc1)N1CCSC1=NCc1ccccc1`: 26 µg/mL (≈ 75.2 µM). The value for `CC(O)CNc1ccc([N+](=O)[O-])cc1S(=O)(=O)N1CCOCC1` (stereo unspecified) was more than 51.8 µg/mL; that for `Cc1nnc(SCC(=O)N(C)C2CCCCC2)s1` was more than 42.8 µg/mL. For `CCOC(=O)c1ccc(CN2C(=O)c3ccccc3S2(=O)=O)cc1`, the kinetic solubility came to 0.9 µg/mL (≈ 2.61 µM). The value for `COc1cc2c(cc1OC)CN(c1ccc(F)cc1[N+](=O)[O-])CC2` was 17.8 µg/mL (≈ 53.6 µM); that for `CNC(=O)CSc1nc2ccccc2c(=O)n1CCc1ccccc1` was less than 0.3 µg/mL; that for `O=C(COC(=O)/C=C/c1ccc(F)cc1)NC1CCCCCC1` was 3.7 µg/mL (≈ 11.6 µM). In turn, `CCN(Cc1ccccc1)Cc1nc(CCc2ccccc2)no1` came in with a solubility (kinetic) of 1.4 µg/mL (≈ 4.36 µM). The value for `Cc1ccc(C(=O)O/N=C(\N)c2ccccn2)c(Cl)c1` was 42.4 µg/mL (≈ 146 µM); that for `O=C(NC1CCCCC1)c1ccc(N2CCOCC2)c([N+](=O)[O-])c1` was more than 50 µg/mL.

In turn, `COC(=O)c1ccc2nc(-c3ccc4c(c3)OCO4)cn2c1` returned a solubility (kinetic) of 1.2 µg/mL (≈ 4.05 µM). In turn, `COc1ccc(NC(=O)[C@@H]2CCCN2S(=O)(=O)c2ccc(Cl)cc2)cc1` returned a kinetic solubility of more than 59.2 µg/mL. In turn, `O=C(c1ccco1)N1CCN(C2c3ccccc3-c3ccccc32)CC1` yielded a kinetic solubility of 1 µg/mL (≈ 2.9 µM).

As to `CC(C)c1ccc(Nc2nc(Cl)nc(NCc3ccco3)n2)cc1`, the kinetic solubility came out at 0.6 µg/mL (≈ 1.75 µM). The value for `COc1ccc(NC(=O)NCCCCc2ccccc2)c(OC)c1` was 0.7 µg/mL (≈ 2.13 µM).

The compound `COc1ccc(OC)c(CNS(=O)(=O)c2cn(C)cn2)c1` registered a solubility (kinetic) of 46.5 µg/mL (≈ 149 µM). The value for `O=C(O)CNS(=O)(=O)Cc1ccccc1` was 29 µg/mL (≈ 126 µM); that for `CC1=CC(C)(C)NC(=S)N1NC(=O)c1ccccc1Cl` was more than 46.5 µg/mL. As to `O=C(CSc1nc2ccccc2c2c1CCCC2)N1CCOCC1`, the solubility (kinetic) was 9.9 µg/mL (≈ 28.9 µM). The value for `Cc1ccc(CNS(=O)(=O)c2ccc(C(F)(F)F)cc2)n1C` was 30.6 µg/mL (≈ 92.1 µM); that for `COc1ccc2o/c(=N\O)c(C(=O)Nc3ccc(C)cc3)cc2c1` was 11.7 µg/mL (≈ 36.1 µM); that for `O=C(CCc1c[nH]c2ccccc12)OCc1cccc([N+](=O)[O-])c1` was less than 0.3 µg/mL. As for `C=CCNC(=O)C1CC1(c1cccc(C)c1)c1cccc(C)c1` (stereo unspecified), the solubility (kinetic) was determined as 1.7 µg/mL (≈ 5.57 µM). The value for `N#Cc1c(Cl)cccc1N1CCCC1` was 2 µg/mL (≈ 9.68 µM); that for `Cc1cnc(NC(=O)c2ccc3c(c2)OCCO3)s1` was 4.4 µg/mL (≈ 15.9 µM). The value for `COc1ccccc1-c1cc(C(=O)N2CCCC2)no1` was more than 40.8 µg/mL.

Turning to `Cc1cc(-c2onc3ccc(Cl)cc23)ccc1O`, the solubility (kinetic) was 16.3 µg/mL (≈ 62.8 µM). Turning to `O=[N+]([O-])c1cnn2cc(Br)cnc12`, the solubility (kinetic) is more than 36.5 µg/mL. The same measure for `COc1cccc(OC)c1C(=O)NCCOc1cc(C)cc(C)c1`: 28.3 µg/mL (≈ 85.9 µM).

On to `O=C(Cc1cccs1)NCc1cccc(Br)c1`, for which the kinetic solubility was more than 46.5 µg/mL. The value for `CCOC(=O)CCNCc1ccc(OC)c(OC)c1.Cl` was more than 45.6 µg/mL.

With `CCOC(=O)/C=C(C)\C=C\c1c[nH]c2ccccc12`, the kinetic solubility was determined as 12.5 µg/mL (≈ 49 µM). In turn, `COC(=O)c1sccc1NC(=O)Nc1ccc(F)cc1` returned a solubility (kinetic) of 28.4 µg/mL (≈ 96.5 µM).

Regarding `CCN(Cc1nc(-c2ccccc2)no1)C(=O)c1ccoc1C`, the kinetic solubility is 40.2 µg/mL (≈ 129 µM). The compound `CCOC(=O)N1CCN(CC(=O)c2ccc(O)cc2O)CC1` showed a solubility (kinetic) of more than 46.3 µg/mL. Compound `O=C(COC(=O)CC1CCCC1)Nc1ccc(Cl)cn1` registered a kinetic solubility of 9.1 µg/mL (≈ 30.7 µM).

Regarding `CCCC1C(=O)Nc2ccccc2N1C(=O)c1cccc(C)c1` (stereo unspecified), the kinetic solubility was more than 46.3 µg/mL.
